Where two headings read alike, the source gives them in different places.
Assays:
Type in all cases: binding
[1] = molecular target: T1, 1LysM module of AtlA (Enterococcus faecalis, UniProt P37710); assay: biochemical
[2] = molecular target: T2, L1–L6 (Enterococcus faecalis, UniProt P37710); assay: Steady-state SPR; details: SD
T2 sequence (P37710 338-737): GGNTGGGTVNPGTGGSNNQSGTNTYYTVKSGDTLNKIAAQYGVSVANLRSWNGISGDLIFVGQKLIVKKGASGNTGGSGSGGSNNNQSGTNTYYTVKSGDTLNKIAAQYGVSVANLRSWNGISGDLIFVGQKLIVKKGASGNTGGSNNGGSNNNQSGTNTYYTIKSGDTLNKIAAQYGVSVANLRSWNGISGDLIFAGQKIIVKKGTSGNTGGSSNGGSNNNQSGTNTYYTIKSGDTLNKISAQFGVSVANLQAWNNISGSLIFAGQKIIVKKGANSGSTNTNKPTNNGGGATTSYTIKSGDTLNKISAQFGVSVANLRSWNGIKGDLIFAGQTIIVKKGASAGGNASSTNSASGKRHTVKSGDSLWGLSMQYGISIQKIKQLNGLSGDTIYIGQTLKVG

[3] = molecular target: T3, L1L2L3 (Enterococcus faecalis, UniProt P37710); assay: Steady-state SPR; details: SD
T3 sequence (P37710 338-542 A476S/S477A): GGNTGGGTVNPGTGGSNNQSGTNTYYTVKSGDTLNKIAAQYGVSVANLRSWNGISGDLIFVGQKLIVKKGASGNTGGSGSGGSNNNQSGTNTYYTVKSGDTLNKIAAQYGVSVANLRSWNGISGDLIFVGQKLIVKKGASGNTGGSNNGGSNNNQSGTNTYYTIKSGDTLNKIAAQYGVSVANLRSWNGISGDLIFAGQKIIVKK

[4] = molecular target: L1L2 (Enterococcus faecalis, UniProt P37710); assay: Steady-state SPR
[5] = molecular target: L1 (Enterococcus faecalis, UniProt P37710); assay: Steady-state SPR
[6] = molecular target: T4, 1 (1LysM, WT) (Enterococcus faecalis, UniProt P37710); assay: Steady-state SPR
[7] = molecular target: T1, 1LysM module of AtlA; assay: biochemical; details: Apparent KD to 1LysM (SPR), single LysM module; ± standard deviation
[8] = molecular target: T4, 1 (1LysM, WT); assay: SPR

SMILES	Kd [2] [µM]	Kd [3] [µM]	Kd ([4]; SD) [µM]	Kd ([5]; SD) [µM]	Kd [7] [µM]	also measured
CC(=O)N[C@H]1[C@H](O[C@H]2[C@H](O[C@H](C)C(=O)O)[C@@H](NC(C)=O)C(O)O[C@@H]2CO)O[C@H](CO)[C@@H](O[C@@H]2O[C@H](CO)[C@@H](O[C@@H]3O[C@H](CO)[C@@H](O)[C@H](O)[C@H]3NC(C)=O)[C@H](O[C@H](C)C(=O)O)[C@H]2NC(C)=O)[C@@H]1O (stereo partly drawn) [(GlcNAc-MurNAc)2, (GlcNAc-β−1,4-MurNAc)2]	–	–	–	–	–	Kd [1]: 650 µM
CC(=O)N[C@H]1[C@H](O[C@H]2[C@H](O)[C@@H](NC(C)=O)C(O)O[C@@H]2CO)O[C@H](CO)[C@@H](O)[C@@H]1O (stereo partly drawn) [GlcNAc2, chitobiose (di-N-acetylchitobiose, beta-1,4-linked GlcNAc dimer)]	4420	7100	–	–	–	Kd [4]: > 5000 µM; Kd [5]: > 5000 µM; Kd [6]: > 5000 µM
CC(=O)N[C@H]1[C@H](O[C@H]2[C@H](O)[C@@H](NC(C)=O)C(O)O[C@@H]2CO)O[C@H](CO)[C@@H](O[C@@H]2O[C@H](CO)[C@@H](O)[C@H](O)[C@H]2NC(C)=O)[C@@H]1O (stereo partly drawn) [GlcNAc3, chitotriose (tri-N-acetylchitotriose, beta-1,4-linked GlcNAc trimer)]	702 ± 87.7	628 ± 32.8	678 ± 57.3	453 ± 58.6	–	–
CC(=O)N[C@H]1[C@H](O[C@H]2[C@H](O)[C@@H](NC(C)=O)C(O)O[C@@H]2CO)O[C@H](CO)[C@@H](O[C@@H]2O[C@H](CO)[C@@H](O)[C@H](O)[C@H]2NC(C)=O)[C@@H]1O (stereo partly drawn) [GlcNAc3]	–	–	–	–	408 ± 80.8	–
CC(=O)N[C@H]1[C@H](O[C@H]2[C@H](O)[C@@H](NC(C)=O)C(O)O[C@@H]2CO)O[C@H](CO)[C@@H](O[C@@H]2O[C@H](CO)[C@@H](O[C@@H]3O[C@H](CO)[C@@H](O)[C@H](O)[C@H]3NC(C)=O)[C@H](O)[C@H]2NC(C)=O)[C@@H]1O (stereo partly drawn) [GlcNAc4, chitotetraose (tetra-N-acetylchitotetraose, beta-1,4-linked GlcNAc tetramer)]	18.6 ± 4.5	22.3 ± 1.8	38.1 ± 2.8	50.4 ± 4.1	–	–
CC(=O)N[C@H]1[C@H](O[C@H]2[C@H](O)[C@@H](NC(C)=O)C(O)O[C@@H]2CO)O[C@H](CO)[C@@H](O[C@@H]2O[C@H](CO)[C@@H](O[C@@H]3O[C@H](CO)[C@@H](O)[C@H](O)[C@H]3NC(C)=O)[C@H](O)[C@H]2NC(C)=O)[C@@H]1O (stereo partly drawn) [GlcNAc4, reference compound]	–	–	–	–	43.4 ± 3	Kd [1]: 90 µM
CC(=O)N[C@H]1[C@H](O[C@H]2[C@H](O)[C@@H](NC(C)=O)[C@H](O[C@H]3[C@H](O)[C@@H](NC(C)=O)C(O)O[C@@H]3CO)O[C@@H]2CO)O[C@H](CO)[C@@H](O[C@@H]2O[C@H](CO)[C@@H](O[C@@H]3O[C@H](CO)[C@@H](O)[C@H](O)[C@H]3NC(C)=O)[C@H](O)[C@H]2NC(C)=O)[C@@H]1O (stereo partly drawn) [GlcNAc5, chitopentaose (penta-N-acetylchitopentaose, beta-1,4-linked GlcNAc pentamer)]	2.2 ± 0.3	4.6 ± 0.4	9.6 ± 0.8	12.1 ± 1.4	–	Kd [8]: 11.7 ± 1.7 µM
CC(=O)N[C@H]1[C@H](O[C@H]2[C@H](O)[C@@H](NC(C)=O)[C@H](O[C@H]3[C@H](O)[C@@H](NC(C)=O)C(O)O[C@@H]3CO)O[C@@H]2CO)O[C@H](CO)[C@@H](O[C@@H]2O[C@H](CO)[C@@H](O[C@@H]3O[C@H](CO)[C@@H](O[C@@H]4O[C@H](CO)[C@@H](O)[C@H](O)[C@H]4NC(C)=O)[C@H](O)[C@H]3NC(C)=O)[C@H](O)[C@H]2NC(C)=O)[C@@H]1O (stereo partly drawn) [GlcNAc6, chitohexaose (hexa-N-acetylchitohexaose, beta-1,4-linked GlcNAc hexamer)]	1.5 ± 0.1	3 ± 0.1	5 ± 0.3	5.6 ± 0.5	–	–
CC(=O)N[C@H]1[C@H](O[C@H]2[C@H](O)[C@@H](NC(C)=O)[C@H](O[C@H]3[C@H](O)[C@@H](NC(C)=O)C(O)O[C@@H]3CO)O[C@@H]2CO)O[C@H](CO)[C@@H](O[C@@H]2O[C@H](CO)[C@@H](O[C@@H]3O[C@H](CO)[C@@H](O[C@@H]4O[C@H](CO)[C@@H](O)[C@H](O)[C@H]4NC(C)=O)[C@H](O)[C@H]3NC(C)=O)[C@H](O)[C@H]2NC(C)=O)[C@@H]1O (stereo partly drawn) [GlcNAc6]	–	–	–	–	6 ± 0.8	–
